Paper PMC4738305, “Metabolism and Disposition of Aditoprim in Swine, Broilers, Carp and Rats” (Scientific Reports, 2016)

Assay: Tissue distribution and elimination of total radioactivity (total residues) after oral ^3H-ADP for 7 d
Format: in vivo, carp
Parameters: Ke of total residues: unit not given here
Method: (0.1 Ci/g) through oral gavage for 7 consecutive days. All the animals were housed on the basis of their group in the cages or aquaria throughout the whole study period. A group of animals was slaughtered through exsanguination under diethyl ether inhalation of anesthesia in the period of 6 h, 1, 3, 7, 14, and 21 d after the administration. The blood samples were immediately collected into the heparinized tubes and was centrifuged at 1920 × g at 4 °C for 10 min to obtain the plasma. The tissues from the heart, liver, spleen, lung, kidney, craw (broilers), stomach, intestine, fat, skin, muscle, thymus, pancreas, bile, bladder, hair (scale for carp), genital gland, adrenal glands, swim bladder (carp), brain, lymph, and bursa (broilers) were carefully excised and collected. The tissues were thoroughly rinsed with the deionized water to remove the residuary blood, blotted to dryness, and finally to perform the homogenization. In order to avoid cross-contamination the dissecting instruments were washed during the tissue procurements. The blank tissues were collected in order to provide control matrices. The total radioactivity levels in each sample were determined through LSC. The samples extracted from the plasma, bile, and tissues of the liver, kidney, muscle, and fat/skin were analyzed through LC/MS-IT-TOF and v. ARC radiometric detection for metabolite profiling.
Measurements of the total radioactivity in each sample were conducted by Packard Tri-Carb 2900 TR liquid scintillation counter (PerkinElmer Life and Analytical Sciences). The detection time was 10 min for two cycles. The scintillation counter data were automatically corrected for counting efficiency by instrument-stored quench curve which was drawn with a series of sealed quenched […] standards. The actual radioactivity of each sample was calculated by subtracting the background value form the mean radioactivity in two blank samples. All the samples were analyzed in duplicate if the sample size allowed this. If the results were differed by more than 10% from the mean value, the samples were reanalyzed. The samples with LSC counts less than 2-fold of the level of the running background were considered to contain insufficient radioactivity for reliable quantification.
Aliquots of liquid samples (urine, plasma, bile and raised water, 200 μL) were mixed with 10 mL of Ultima Gold^TM scintillation fluid for the direct analysis by LSC. Aliquots of solid samples (feces and tissues, 200 mg) were digested overnight with 2 mL tissue solubilizer at 50 °C in a shaking water bath, followed by adding 200 μL of 0.1 mol/L EDTA-Na and 200 μL of 30% H2O2, and was bathed at 50 °C for 2 h to bleach. The obtained transparent liquid were mixed with 10 mL of scintillation fluid and finally were counted by LSC. The digestion efficiency was determined by using the blank samples spiked with ^3 H standard for digestion, and the measured radioactivity content in the digested samples were adjusted by using the digestion efficiency values.
The concentrations of ADP and/or its metabolites were analyzed by using the following equation: C = L/(2.22 × 10^9 × RM), where C is the concentration of ADP or/and its metabolites (mg/kg), L is the LSC count (dpm), R is the specific activity of the administered dose (0.1 Ci/g), and M is the weight or volume of samples (kg or L). The results are expressed as mean ± SD. The elimination kinetics of terminal phase for ADP and its metabolites were conducted by using the WinNonlin linear regression program (Pharsight corporation, Statistical consultants, Inc., Kentucky, USA).

Structure (SMILES): [3H]c1c(Cc2cnc(N)nc2N)cc(OC)c(N(C)C)c1OC [^3H-ADP]
- Concentrations of total residues (carp Heart, 21 d after 5 mg/kg b. w. for 7 days): 0.01 ± 0.00 mg/kg
- Ke of total residues (carp Intestine): 0.21
- Concentrations of total residues (carp Intestine, 1 d after 5 mg/kg b. w. for 7 days): 5.35 ± 0.51 mg/kg
- Concentrations of total residues (carp Intestine, 3 d after 5 mg/kg b. w. for 7 days): 1.85 ± 0.25 mg/kg
- Concentrations of total residues (carp Intestine, 7 d after 5 mg/kg b. w. for 7 days): 0.42 ± 0.09 mg/kg
- Concentrations of total residues (carp Intestine, 14 d after 5 mg/kg b. w. for 7 days): 0.16 ± 0.06 mg/kg
- Ke of total residues (carp Kidney): 0.19
- Concentrations of total residues (carp Kidney, 0.25 d after 5 mg/kg b. w. for 7 days): 47.64 ± 9.81 mg/kg
- Concentrations of total residues (carp Kidney, 1 d after 5 mg/kg b. w. for 7 days): 8.30 ± 1.02 mg/kg
- Concentrations of total residues (carp Kidney, 3 d after 5 mg/kg b. w. for 7 days): 3.83 ± 0.39 mg/kg
- Concentrations of total residues (carp Kidney, 7 d after 5 mg/kg b. w. for 7 days): 1.57 ± 0.11 mg/kg
- Concentrations of total residues (carp Kidney, 14 d after 5 mg/kg b. w. for 7 days): 0.72 ± 0.10 mg/kg
- Concentrations of total residues (carp Kidney, 21 d after 5 mg/kg b. w. for 7 days): 0.10 ± 0.02 mg/kg
- Ke of total residues (carp Liver): 0.10
- Concentrations of total residues (carp Liver, 0.25 d after 5 mg/kg b. w. for 7 days): 15.59 ± 1.52 mg/kg
- Concentrations of total residues (carp Liver, 3 d after 5 mg/kg b. w. for 7 days): 2.53 ± 0.21 mg/kg
- Concentrations of total residues (carp Liver, 7 d after 5 mg/kg b. w. for 7 days): 0.40 ± 0.08 mg/kg
- Concentrations of total residues (carp Liver, 14 d after 5 mg/kg b. w. for 7 days): 0.30 ± 0.05 mg/kg
- Concentrations of total residues (carp Liver, 21 d after 5 mg/kg b. w. for 7 days): 0.09 ± 0.01 mg/kg
- Ke of total residues (carp Muscle): 0.23
- Concentrations of total residues (carp Muscle, 0.25 d after 5 mg/kg b. w. for 7 days): 2.26 ± 0.62 mg/kg
- Concentrations of total residues (carp Muscle, 1 d after 5 mg/kg b. w. for 7 days): 1.96 ± 0.48 mg/kg
- Concentrations of total residues (carp Muscle, 3 d after 5 mg/kg b. w. for 7 days): 0.96 ± 0.10 mg/kg
- Concentrations of total residues (carp Muscle, 7 d after 5 mg/kg b. w. for 7 days): 0.43 ± 0.09 mg/kg
- Concentrations of total residues (carp Muscle, 14 d after 5 mg/kg b. w. for 7 days): 0.08 ± 0.00 mg/kg
- Ke of total residues (carp Roe): 0.16
- Concentrations of total residues (carp Roe, 0.25 d after 5 mg/kg b. w. for 7 days): 4.74 ± 1.03 mg/kg
- Concentrations of total residues (carp Roe, 1 d after 5 mg/kg b. w. for 7 days): 3.86 ± 0.76 mg/kg
- Concentrations of total residues (carp Roe, 3 d after 5 mg/kg b. w. for 7 days): 2.24 ± 0.36 mg/kg
- Concentrations of total residues (carp Roe, 7 d after 5 mg/kg b. w. for 7 days): 0.85 ± 0.40 mg/kg
- Concentrations of total residues (carp Roe, 14 d after 5 mg/kg b. w. for 7 days): 0.47 ± 0.13 mg/kg
- Concentrations of total residues (carp Roe, 21 d after 5 mg/kg b. w. for 7 days): 0.09 ± 0.01 mg/kg
- Ke of total residues (carp Scales): 0.24
- Concentrations of total residues (carp Scales, 0.25 d after 5 mg/kg b. w. for 7 days): 2.59 ± 0.32 mg/kg
- Concentrations of total residues (carp Scales, 1 d after 5 mg/kg b. w. for 7 days): 2.01 ± 0.45 mg/kg
- Concentrations of total residues (carp Scales, 3 d after 5 mg/kg b. w. for 7 days): 0.80 ± 0.04 mg/kg
- Concentrations of total residues (carp Scales, 7 d after 5 mg/kg b. w. for 7 days): 0.29 ± 0.07 mg/kg
- Concentrations of total residues (carp Scales, 14 d after 5 mg/kg b. w. for 7 days): 0.06 ± 0.01 mg/kg
- Ke of total residues (carp Skin): 0.29
- Concentrations of total residues (carp Skin, 0.25 d after 5 mg/kg b. w. for 7 days): 3.66 ± 0.62 mg/kg
- Concentrations of total residues (carp Skin, 1 d after 5 mg/kg b. w. for 7 days): 2.82 ± 0.91 mg/kg
- Concentrations of total residues (carp Skin, 3 d after 5 mg/kg b. w. for 7 days): 1.48 ± 0.16 mg/kg
- Concentrations of total residues (carp Skin, 7 d after 5 mg/kg b. w. for 7 days): 0.87 ± 0.17 mg/kg
- Concentrations of total residues (carp Skin, 14 d after 5 mg/kg b. w. for 7 days): 0.07 ± 0.01 mg/kg
- Ke of total residues (carp Spleen): 0.23
- Concentrations of total residues (carp Spleen, 0.25 d after 5 mg/kg b. w. for 7 days): 63.23 ± 2.89 mg/kg
- Concentrations of total residues (carp Spleen, 1 d after 5 mg/kg b. w. for 7 days): 27.12 ± 4.89 mg/kg
- Concentrations of total residues (carp Spleen, 3 d after 5 mg/kg b. w. for 7 days): 8.17 ± 0.59 mg/kg
- Concentrations of total residues (carp Spleen, 7 d after 5 mg/kg b. w. for 7 days): 0.73 ± 0.17 mg/kg
- Concentrations of total residues (carp Spleen, 14 d after 5 mg/kg b. w. for 7 days): 0.25 ± 0.05 mg/kg
- Concentrations of total residues (carp Spleen, 21 d after 5 mg/kg b. w. for 7 days): 0.03 ± 0.00 mg/kg
